This is an account of results in US9884868B2, “TGF-beta inhibitors” (Rigel Pharmaceuticals, Inc., priority 2015, dated 2018).

The test system of experiment [1] is GDF8 signaling (p-SMAD-3 (Ser423/425)). Briefly: AlphaScreen SureFire SMAD3 (p-Ser423/425) assay, GDF8-stimulated cells (GDF pSMAD (MPC11)). The format is cell-based. The conditions noted are these: pSMAD3 readout, read-out: GDF8 (inhibition of GDF8 signaling.
Experiment [2] relates to TGF-β signaling (p-SMAD-3 (Ser423/425)). Briefly: AlphaScreen SureFire SMAD3 (p-Ser423/425) assay, TGF-β-stimulated cells (TGF-β pSMAD (MPC-11)). The following applies: pSMAD3 readout, read-out: TGF-β (inhibition of TGF-β signaling. Type of experiment: cell-based. In general terms: Alpha assays give light when donor and acceptor beads are brought close together.
In the next experiment the target is HIS-TGF-βR1 T204D (Homo sapiens (Human), UniProt P36897, T204D). Briefly: HTRF probe displacement assay with HIS-TGF-βR1 T204D. The following applies: read-out: TGFbr1 IC50; HTRF probe displacement, 1 nM HIS-TGF-βR1 T204D, 1 hour at room temperature. For orientation: Time-resolved FRET reads energy transfer from a long-lived donor to a nearby acceptor.
In a further experiment the target is HIS-TGF-βR2 WT (Homo sapiens (Human), UniProt P37173). Briefly: HTRF probe displacement assay with HIS-TGF-βR2 WT. The conditions noted are these: read-out: TGFBr2 IC50; HTRF probe displacement, 1 nM HIS-TGF-βR2 WT, 1 hour at room temperature.
HIS-TGF-βR2 WT, sequence (P37173 23-567): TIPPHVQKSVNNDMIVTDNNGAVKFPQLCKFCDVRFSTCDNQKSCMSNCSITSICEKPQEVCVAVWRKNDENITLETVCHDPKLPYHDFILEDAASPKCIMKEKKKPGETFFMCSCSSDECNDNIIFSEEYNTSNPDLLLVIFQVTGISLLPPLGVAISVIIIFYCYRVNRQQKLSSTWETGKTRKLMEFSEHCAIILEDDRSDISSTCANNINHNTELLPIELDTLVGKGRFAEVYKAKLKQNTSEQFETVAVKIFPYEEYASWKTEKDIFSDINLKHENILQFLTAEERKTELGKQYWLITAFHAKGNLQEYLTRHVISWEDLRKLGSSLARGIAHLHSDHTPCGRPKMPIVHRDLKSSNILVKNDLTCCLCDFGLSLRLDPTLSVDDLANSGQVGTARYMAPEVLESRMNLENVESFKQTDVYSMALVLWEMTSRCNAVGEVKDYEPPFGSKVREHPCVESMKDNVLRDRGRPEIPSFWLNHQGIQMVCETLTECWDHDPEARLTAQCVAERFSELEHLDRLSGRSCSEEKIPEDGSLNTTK

HIS-TGF-βR1 T204D, sequence (P36897 34-503 T204D): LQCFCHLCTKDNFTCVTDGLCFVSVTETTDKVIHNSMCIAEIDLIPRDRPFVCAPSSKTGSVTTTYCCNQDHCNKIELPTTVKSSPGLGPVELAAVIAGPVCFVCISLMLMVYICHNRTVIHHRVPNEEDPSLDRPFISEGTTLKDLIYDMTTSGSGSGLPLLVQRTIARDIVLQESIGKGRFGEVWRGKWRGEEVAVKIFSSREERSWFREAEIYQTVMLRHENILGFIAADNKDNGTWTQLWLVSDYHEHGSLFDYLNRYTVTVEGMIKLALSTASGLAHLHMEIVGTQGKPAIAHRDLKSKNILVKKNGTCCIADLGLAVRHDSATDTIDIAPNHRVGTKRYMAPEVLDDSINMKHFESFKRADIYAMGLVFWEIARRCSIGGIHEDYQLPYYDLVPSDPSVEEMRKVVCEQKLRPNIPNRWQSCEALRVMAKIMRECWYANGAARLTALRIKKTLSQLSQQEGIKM

Consider “5-(benzo[d]thiazol-6-yl)-4-(3-chlorophenyl)thiazol-2-amine [Compound 166]”, for which the IC50 in experiment [1] amounted to 70.2 nM.

Regarding `Cc1cc(-c2ncn(C)c2-c2ccc3cn[nH]c3c2)ccc1F` [Compound 5, 6-(4-(4-Fluoro-3-methylphenyl)-1-methyl-1H-imidazol-5-yl)-1H-indazole], the IC50 in experiment [2] worked out at 20 nM; in experiment [1], 10 nM.

Take `Cc1cc(-c2ncn(C)c2-c2ccc3cn[nH]c3c2)ccc1F` [Compound 7, 6-(4-(4-Fluoro-3-methylphenyl)-1-methyl-1H-imidazol-5-yl)-1H-indazole]: the IC50 in experiment [2] stood at 150 nM; in experiment [1], 40 nM.

Take `CCc1nc(-c2cc(C)cc(F)c2)c(-c2ccc3[nH]ncc3c2)[nH]1` [Compound 142, 5-(2-Ethyl-4-(3-fluoro-5-methylphenyl)-1H-imidazol-5-yl)-1H-indazole]: the figures for the IC50 in experiment [2] and in experiment [1] were 4390 nM and 670 nM, respectively.

With `CC(C)(C)NC(=O)N1CC(n2cnc(-c3ccc(F)cc3)c2-c2ccc3ncc(C(N)=O)n3n2)C1` [Example 195′, 6-(1-(1-(tert-butylcarbamoyl)azetidin-3-yl)-4-(4-fluorophenyl)-1H-imidazol-5-yl)imidazo[1,2-b]pyridazine-3-carboxamide], the IC50 is 436 nM at HIS-TGF-βR1 T204D and greater than 15000 nM at HIS-TGF-βR2 WT.

For the compound `CC(=O)NCc1cnc2ccc(-c3c(-c4ccc(F)cc4)ncn3CC(F)F)nn12` [Example 197′, N-((6-(1-(2,2-difluoroethyl)-4-(4-fluorophenyl)-1H-imidazol-5-yl)imidazo[1,2-b]pyridazin-3-yl)methyl)acetamide], the values for the IC50 on HIS-TGF-βR1 T204D and at HIS-TGF-βR2 WT were 11.9 nM and greater than 15000 nM, respectively.

For `O=C(NCc1cnc2ccc(-c3c(-c4ccc(F)cc4)ncn3CC(F)F)nn12)C1CC1` [Example 198′, N-((6-(1-(2,2-difluoroethyl)-4-(4-fluorophenyl)-1H-imidazol-5-yl)imidazo[1,2-b]pyridazin-3-yl)methyl)cyclopropanecarboxamide], the IC50 was 5.3 nM on HIS-TGF-βR1 T204D and greater than 15000 nM at HIS-TGF-βR2 WT.

`CC(C)(C)NC(=O)NCc1cnc2ccc(-c3c(-c4ccc(F)cc4)ncn3CC(F)F)nn12` [Example 199′, 1-(tert-butyl)-3-((6-(1-(2,2-difluoroethyl)-4-(4-fluorophenyl)-1H-imidazol-5-yl)imidazo[1,2-b]pyridazin-3-yl)methyl)urea]: the IC50 is 9.5 nM at HIS-TGF-βR1 T204D and greater than 15000 nM on HIS-TGF-βR2 WT.

As to `COC(=O)NCc1cnc2ccc(-c3c(-c4ccc(F)cc4)ncn3CC(F)F)nn12` [Example 200′, methyl ((6-(1-(2,2-difluoroethyl)-4-(4-fluorophenyl)-1H-imidazol-5-yl)imidazo[1,2-b]pyridazin-3-yl)methyl)carbamate], the IC50 on HIS-TGF-βR1 T204D was 12 nM; on HIS-TGF-βR2 WT, greater than 15000 nM.

As for `CC(C)OC(=O)NCc1cnc2ccc(-c3c(-c4ccc(F)cc4)ncn3CC(F)F)nn12` [Example 201′, isopropyl ((6-(1-(2,2-difluoroethyl)-4-(4-fluorophenyl)-1H-imidazol-5-yl)imidazo[1,2-b]pyridazin-3-yl)methyl)carbamate], the results for the IC50 on HIS-TGF-βR1 T204D and on HIS-TGF-βR2 WT were 5 nM and greater than 15000 nM, respectively.

Take `CC(C)(C)C(=O)NCc1cnc2ccc(-c3c(-c4ccc(F)cc4)ncn3CC(F)F)nn12` [Example 202′, N-((6-(1-(2,2-difluoroethyl)-4-(4-fluorophenyl)-1H-imidazol-5-yl)imidazo[1,2-b]pyridazin-3-yl)methyl)pivalamide]: the IC50 at HIS-TGF-βR1 T204D is 43.8 nM; at HIS-TGF-βR2 WT, greater than 15000 nM.

On to `COC(=O)Nc1cnc2ccc(-c3c(-c4ccc(F)cc4)ncn3CC(F)F)nn12` [Example 211′, methyl (6-(1-(2,2-difluoroethyl)-4-(4-fluorophenyl)-1H-imidazol-5-yl)imidazo[1,2-b]pyridazin-3-yl)carbamate], for which the IC50 on HIS-TGF-βR1 T204D is 4.5 nM; at HIS-TGF-βR2 WT, greater than 15000 nM.

With `OC(c1cnc2ccc(-c3c(-c4ccc(F)cc4)ncn3CC(F)F)nn12)C(F)(F)F` (stereo not shown) [Example 213′, 1-(6-(1-(2,2-difluoroethyl)-4-(4-fluorophenyl)-1H-imidazol-5-yl)imidazo[1,2-b]pyridazin-3-yl)-2,2,2-trifluoroethanol], the IC50 at HIS-TGF-βR1 T204D was 2.3 nM; at HIS-TGF-βR2 WT, greater than 15000 nM.

As to `Fc1ccc(-c2ncn(CC(F)F)c2-c2ccc3ncc(CNCC(F)F)n3c2)cc1` [Example 275′, N-((6-(1-(2,2-difluoroethyl)-4-(4-fluorophenyl)-1H-imidazol-5-yl)imidazo[1,2-a]pyridin-3-yl)methyl)-2,2-difluoroethanamine], the IC50 was 121 nM on HIS-TGF-βR1 T204D and greater than 15000 nM on HIS-TGF-βR2 WT.

For the compound `O=C(NC1CC1)c1cnc2ccc(-c3c(-c4ccc(F)cc4)ncn3CC(F)F)cn12` [Example 279′, N-cyclopropyl-6-(1-(2,2-difluoroethyl)-4-(4-fluorophenyl)-1H-imidazol-5-yl)imidazo[1,2-a]pyridine-3-carboxamide], the IC50 on HIS-TGF-βR1 T204D is 9.5 nM; at HIS-TGF-βR2 WT, greater than 15000 nM.

`COC(=O)Nc1cnc2ccc(-c3c(-c4ccc(F)cc4)ncn3CC(F)F)cn12` [Example 284′, methyl (6-(1-(2,2-difluoroethyl)-4-(4-fluorophenyl)-1H-imidazol-5-yl)imidazo[1,2-a]pyridin-3-yl)carbamate]: the IC50 was 426 nM at HIS-TGF-βR1 T204D and greater than 15000 nM on HIS-TGF-βR2 WT.

Take `Fc1ccc(-c2ncn(CC(F)F)c2-c2ccc3ncc(N4CCOCC4)n3c2)cc1` [Example 289′, 4-(6-(1-(2,2-difluoroethyl)-4-(4-fluorophenyl)-1H-imidazol-5-yl)imidazo[1,2-a]pyridin-3-yl)morpholine]: the IC50 on HIS-TGF-βR1 T204D is 376 nM; on HIS-TGF-βR2 WT, greater than 15000 nM.

Take `COC(=O)N1CCn2c(nc(-c3ccc(F)cc3)c2-c2ccc3ncc(C(N)=O)n3c2)C1` [Example 291′, methyl 3-(3-carbamoylimidazo[1,2-a]pyridin-6-yl)-2-(4-fluorophenyl)-5,6-dihydroimidazo[1,2-a]pyrazine-7(8H)-carboxylate]: the IC50 is 30.5 nM on HIS-TGF-βR1 T204D and greater than 15000 nM on HIS-TGF-βR2 WT.

For `NC(=O)c1cnc2ccc(-c3c(-c4ccc(F)cc4)nc4n3CCN(CC(F)F)C4)cn12` [Example 294′, 6-(7-(2,2-difluoroethyl)-2-(4-fluorophenyl)-5,6,7,8-tetrahydroimidazo[1,2-a]pyrazin-3-yl)imidazo[1,2-a]pyridine-3-carboxamide], the results for the IC50 on HIS-TGF-βR1 T204D and at HIS-TGF-βR2 WT were 27.2 nM and greater than 15000 nM, respectively.
